In PubChem BioAssay AID324 (DTP/NCI, 2004):
Inconclusive results and toxic doses are left out. The calls were made as follows: active = survival T/C of 150% or more; inactive = T/C below 125% in these data.

Tested on: CD2F1 mice, AMSA-resistant P388 leukemia ip, median survival T/C
Assay: NCI In Vivo Anticancer Drug Screen. Data for tumor model P388 Leukemia resistant to AMSA; NSC 249992 (intraperitoneal) in CD2F1 (CDF1) mice
Conditions: endpoint: median survival time, higher = longer survival
Method: The antitumor activity of compounds was measured in mice bearing transplantable tumors. Survival or tumor size were measured and the results are expressed as the measurement made in the treated group (T) divided by the measurement made in the vehicle treated control group (C). The tumor model used in this assay is P388 Leukemia resistant to AMSA; NSC 249992 (intraperitoneal) in CD2F1 (CDF1) mice

Measured: T/C

CCC1(O)CC(OC2CC(N(C)C)C(OC3CC4OC5CC(=O)C(C)OC5OC4C(C)O3)C(C)O2)c2c(cc3c(c2O)C(=O)c2c(O)ccc(O)c2C3=O)C1C(=O)OC (stereo not given)
inactive: dose: 0.64 mg/kg/injection, schedule: Q04DX003 (ip), vehicle: water 108 % of control | dose: 0.86 mg/kg/injection, schedule: Q04DX003 (ip), vehicle: water 112 % of control | dose: 1.08 mg/kg/injection, schedule: Q04DX003 (ip), vehicle: water 107 % of control | dose: 1.44 mg/kg/injection, schedule: Q04DX003 (ip), vehicle: water 115 % of control | dose: 1.8 mg/kg/injection, schedule: Q04DX003 (ip), vehicle: water 117 % of control | dose: 2.4 mg/kg/injection, schedule: Q04DX003 (ip), vehicle: water 124 % of control | dose: 5.0 mg/kg/injection, schedule: Q04DX003 (ip), vehicle: water 113 % of control

C(=N/NC1=NCCN1)/c1c2ccccc2c(/C=N\NC2=NCCN2)c2ccccc12
inactive: dose: 5.18 mg/kg/injection, schedule: Q04DX002 (ip), vehicle: saline 121 % of control | dose: 14.4 mg/kg/injection, schedule: Q04DX002 (ip), vehicle: saline 123 % of control | dose: 40.0 mg/kg/injection, schedule: Q04DX002 (ip), vehicle: saline 123 % of control
